Patent US10351575B2, “Bicyclic urea, thiourea, guanidine and cyanoguanidine compounds useful for the treatment of pain” (Array BioPharma Inc., priority 2012, dated 2019)

Key:
Assay in all cases: KinaseProfiler off-target kinase profiling
Assay type in all cases: biochemical
Conditions in all cases: 10 μM, ATP near Km
p38delta = p38delta (Homo sapiens (Human), UniProt O15264)
Method in brief: (§1)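 Compounds were screened at 10 μM in duplicate, with ATP near the Km of each individual kinase. Activity is given as percent of control (POC), averaged over both replicates.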

NEK7 = NEK7 (Homo sapiens (Human), UniProt Q8TDX7)
Method in brief: as §1

RIPK2 = RIPK2 (Homo sapiens (Human), UniProt O43353)
Method in brief: as §1

PhKgamma2 = PhKgamma2 (Homo sapiens (Human), UniProt P15735)
Method in brief: as §1

JNK1alpha1 = JNK1alpha1 (Homo sapiens (Human), UniProt P45983)
Method in brief: as §1

CHK1 = CHK1 (Homo sapiens (Human), UniProt O14757)
Method in brief: as §1

ALK4 = ALK4 (Homo sapiens (Human), UniProt P36896)
Method in brief: as §1

Rse = Rse (Homo sapiens (Human), UniProt Q06418)
Chain of Rse (Q06418 41-890): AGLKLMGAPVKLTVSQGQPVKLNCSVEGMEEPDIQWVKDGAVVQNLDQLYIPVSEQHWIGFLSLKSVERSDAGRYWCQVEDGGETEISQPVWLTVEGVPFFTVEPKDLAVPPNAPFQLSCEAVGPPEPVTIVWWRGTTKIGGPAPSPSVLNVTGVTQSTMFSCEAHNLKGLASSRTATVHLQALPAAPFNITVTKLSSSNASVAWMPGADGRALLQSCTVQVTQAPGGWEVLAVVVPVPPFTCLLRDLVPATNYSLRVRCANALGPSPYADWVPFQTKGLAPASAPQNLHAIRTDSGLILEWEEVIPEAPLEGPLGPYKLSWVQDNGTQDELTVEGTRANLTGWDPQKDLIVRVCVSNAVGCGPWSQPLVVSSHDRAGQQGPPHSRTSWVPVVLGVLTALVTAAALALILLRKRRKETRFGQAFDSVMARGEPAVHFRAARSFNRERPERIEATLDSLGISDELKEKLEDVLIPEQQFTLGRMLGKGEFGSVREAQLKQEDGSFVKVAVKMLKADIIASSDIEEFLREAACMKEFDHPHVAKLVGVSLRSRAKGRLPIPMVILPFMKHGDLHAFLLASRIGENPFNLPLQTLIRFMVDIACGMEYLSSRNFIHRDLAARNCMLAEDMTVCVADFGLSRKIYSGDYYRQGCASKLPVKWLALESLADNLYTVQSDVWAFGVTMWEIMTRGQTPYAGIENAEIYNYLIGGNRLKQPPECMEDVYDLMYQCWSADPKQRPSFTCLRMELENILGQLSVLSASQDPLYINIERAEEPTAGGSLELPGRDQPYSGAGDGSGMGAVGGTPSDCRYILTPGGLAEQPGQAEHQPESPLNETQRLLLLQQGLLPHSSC
Method in brief: as §1

IRR = IRR (Homo sapiens (Human), UniProt P14616)
Method in brief: as §1

PDGFRbeta = PDGFRbeta (Homo sapiens (Human), UniProt P09619)
Method in brief: as §1

CDK5/p35 = CDK5/p35 (Homo sapiens (Human), UniProt Q00535)
Chain of CDK5/p35 (Q00535 whole entry): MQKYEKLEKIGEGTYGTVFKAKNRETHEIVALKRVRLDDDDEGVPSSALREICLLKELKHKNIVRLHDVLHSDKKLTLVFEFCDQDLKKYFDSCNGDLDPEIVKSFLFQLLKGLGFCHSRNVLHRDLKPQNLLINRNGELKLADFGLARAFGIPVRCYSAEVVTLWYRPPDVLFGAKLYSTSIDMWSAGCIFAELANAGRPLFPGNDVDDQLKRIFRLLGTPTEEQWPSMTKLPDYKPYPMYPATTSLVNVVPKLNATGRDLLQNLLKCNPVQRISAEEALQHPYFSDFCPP
Chain of CDK5/p35 (Q15078 2-307 partner): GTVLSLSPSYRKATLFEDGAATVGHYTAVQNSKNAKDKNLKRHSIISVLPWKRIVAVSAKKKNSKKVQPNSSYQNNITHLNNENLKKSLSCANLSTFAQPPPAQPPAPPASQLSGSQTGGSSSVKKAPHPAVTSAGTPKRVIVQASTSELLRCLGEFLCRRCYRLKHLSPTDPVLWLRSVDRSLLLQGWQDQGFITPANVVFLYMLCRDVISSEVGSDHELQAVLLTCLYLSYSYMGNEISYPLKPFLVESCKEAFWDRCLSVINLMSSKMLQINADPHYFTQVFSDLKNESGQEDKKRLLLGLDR
Method in brief: as §1

STK33 = STK33 (Homo sapiens (Human), UniProt Q9BYT3)
Method in brief: as §1

FGFR3 = FGFR3 (Homo sapiens (Human), UniProt P22607)
Method in brief: as §1

GRK7 = GRK7 (Homo sapiens (Human), UniProt Q8WTQ7)
Method in brief: as §1

FAK2 = FAK2 (Homo sapiens (Human), UniProt Q14289)
Method in brief: as §1

AKT3 = AKT3 (Homo sapiens (Human), UniProt Q9Y243)
Method in brief: as §1

MAP4K2 = MAP4K2 (Homo sapiens (Human), UniProt Q12851)
Method in brief: as §1

CDK9/cyclinT1 = CDK9/cyclinT1 (Homo sapiens (Human), UniProt P50750)
Method in brief: as §1

CK1gamma1 = CK1gamma1 (Homo sapiens (Human), UniProt Q9HCP0)
Method in brief: as §1

Mer = Mer (Homo sapiens (Human), UniProt Q12866)
Chain of Mer (Q12866 21-999): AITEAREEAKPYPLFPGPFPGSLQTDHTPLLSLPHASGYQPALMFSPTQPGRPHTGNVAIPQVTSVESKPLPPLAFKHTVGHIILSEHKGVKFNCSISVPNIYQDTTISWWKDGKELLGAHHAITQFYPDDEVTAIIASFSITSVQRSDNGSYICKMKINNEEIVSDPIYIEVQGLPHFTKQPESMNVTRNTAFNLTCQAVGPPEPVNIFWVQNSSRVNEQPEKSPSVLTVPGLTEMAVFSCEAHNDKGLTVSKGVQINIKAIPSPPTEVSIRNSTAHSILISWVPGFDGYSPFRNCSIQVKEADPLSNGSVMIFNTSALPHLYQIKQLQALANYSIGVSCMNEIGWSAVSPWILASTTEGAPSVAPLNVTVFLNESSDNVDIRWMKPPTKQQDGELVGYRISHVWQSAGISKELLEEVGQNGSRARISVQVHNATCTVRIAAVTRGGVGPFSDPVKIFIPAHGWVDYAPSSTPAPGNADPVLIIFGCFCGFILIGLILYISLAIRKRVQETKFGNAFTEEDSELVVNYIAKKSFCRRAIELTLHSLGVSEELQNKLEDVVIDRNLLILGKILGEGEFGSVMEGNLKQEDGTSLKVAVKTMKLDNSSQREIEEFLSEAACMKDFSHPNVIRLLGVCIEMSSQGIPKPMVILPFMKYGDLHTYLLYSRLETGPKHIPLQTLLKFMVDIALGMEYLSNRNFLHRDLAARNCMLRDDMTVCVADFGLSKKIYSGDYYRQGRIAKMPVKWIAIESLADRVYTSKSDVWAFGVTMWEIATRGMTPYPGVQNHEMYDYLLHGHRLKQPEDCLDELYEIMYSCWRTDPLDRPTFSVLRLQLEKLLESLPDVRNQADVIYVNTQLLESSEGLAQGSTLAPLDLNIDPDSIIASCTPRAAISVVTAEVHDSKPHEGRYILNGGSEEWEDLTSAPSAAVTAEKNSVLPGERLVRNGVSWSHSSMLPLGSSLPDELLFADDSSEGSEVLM
Method in brief: as §1

CSK = CSK (Homo sapiens (Human), UniProt P41240)
Method in brief: as §1

ZAP-70 = ZAP-70 (Homo sapiens (Human), UniProt P43403)
Method in brief: as §1

Flt4 = Flt4 (Homo sapiens (Human), UniProt P35916)
Method in brief: as §1

IKKbeta = IKKbeta (Homo sapiens (Human), UniProt O14920)
Method in brief: as §1

JAK3 = JAK3 (Homo sapiens (Human), UniProt P52333)
Method in brief: as §1

Met = Met (Homo sapiens (Human), UniProt P08581)
Method in brief: as §1

LKB1 = LKB1 (Homo sapiens (Human), UniProt Q15831)
Method in brief: as §1

CAMK1d = CAMK1d (Homo sapiens (Human), UniProt Q8IU85)
Method in brief: as §1

PKD1 = PKD1 (Homo sapiens (Human), UniProt Q15139)
Method in brief: as §1

PDGFRalpha = PDGFRalpha (Homo sapiens (Human), UniProt P16234)
Method in brief: as §1

PKCtheta = PKCtheta (Homo sapiens (Human), UniProt Q04759)
Method in brief: as §1

WNK2 = WNK2 (Homo sapiens (Human), UniProt Q9Y3S1)
Method in brief: as §1

ITK = ITK (Homo sapiens (Human), UniProt Q08881)
Chain of ITK (Q08881 whole entry): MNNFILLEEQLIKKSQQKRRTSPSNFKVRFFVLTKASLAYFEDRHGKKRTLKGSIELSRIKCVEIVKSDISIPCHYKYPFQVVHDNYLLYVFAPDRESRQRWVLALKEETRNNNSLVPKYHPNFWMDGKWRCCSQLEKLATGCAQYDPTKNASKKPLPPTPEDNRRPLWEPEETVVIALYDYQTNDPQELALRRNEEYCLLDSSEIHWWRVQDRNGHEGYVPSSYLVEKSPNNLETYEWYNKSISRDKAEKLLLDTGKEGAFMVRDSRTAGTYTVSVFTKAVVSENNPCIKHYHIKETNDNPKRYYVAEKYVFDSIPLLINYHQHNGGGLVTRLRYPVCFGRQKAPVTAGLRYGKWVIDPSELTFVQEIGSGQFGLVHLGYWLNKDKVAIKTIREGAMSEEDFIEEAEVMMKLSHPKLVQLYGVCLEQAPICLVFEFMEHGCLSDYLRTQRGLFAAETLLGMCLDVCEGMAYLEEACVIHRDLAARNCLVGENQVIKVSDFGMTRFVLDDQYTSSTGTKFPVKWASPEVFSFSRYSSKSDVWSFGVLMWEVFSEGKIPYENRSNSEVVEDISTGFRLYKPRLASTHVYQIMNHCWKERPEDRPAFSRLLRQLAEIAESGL
Method in brief: as §1

CDK2/cyclinE = CDK2/cyclinE (Homo sapiens (Human), UniProt P24941)
Method in brief: as §1

CLK2 = CLK2 (Homo sapiens (Human), UniProt P49760)
Method in brief: as §1

EphA5 = EphA5 (Homo sapiens (Human), UniProt P54756)
Method in brief: as §1

MAP3K5 = MAP3K5 (Homo sapiens (Human), UniProt Q99683)
Chain of MAP3K5 (Q99683 whole entry): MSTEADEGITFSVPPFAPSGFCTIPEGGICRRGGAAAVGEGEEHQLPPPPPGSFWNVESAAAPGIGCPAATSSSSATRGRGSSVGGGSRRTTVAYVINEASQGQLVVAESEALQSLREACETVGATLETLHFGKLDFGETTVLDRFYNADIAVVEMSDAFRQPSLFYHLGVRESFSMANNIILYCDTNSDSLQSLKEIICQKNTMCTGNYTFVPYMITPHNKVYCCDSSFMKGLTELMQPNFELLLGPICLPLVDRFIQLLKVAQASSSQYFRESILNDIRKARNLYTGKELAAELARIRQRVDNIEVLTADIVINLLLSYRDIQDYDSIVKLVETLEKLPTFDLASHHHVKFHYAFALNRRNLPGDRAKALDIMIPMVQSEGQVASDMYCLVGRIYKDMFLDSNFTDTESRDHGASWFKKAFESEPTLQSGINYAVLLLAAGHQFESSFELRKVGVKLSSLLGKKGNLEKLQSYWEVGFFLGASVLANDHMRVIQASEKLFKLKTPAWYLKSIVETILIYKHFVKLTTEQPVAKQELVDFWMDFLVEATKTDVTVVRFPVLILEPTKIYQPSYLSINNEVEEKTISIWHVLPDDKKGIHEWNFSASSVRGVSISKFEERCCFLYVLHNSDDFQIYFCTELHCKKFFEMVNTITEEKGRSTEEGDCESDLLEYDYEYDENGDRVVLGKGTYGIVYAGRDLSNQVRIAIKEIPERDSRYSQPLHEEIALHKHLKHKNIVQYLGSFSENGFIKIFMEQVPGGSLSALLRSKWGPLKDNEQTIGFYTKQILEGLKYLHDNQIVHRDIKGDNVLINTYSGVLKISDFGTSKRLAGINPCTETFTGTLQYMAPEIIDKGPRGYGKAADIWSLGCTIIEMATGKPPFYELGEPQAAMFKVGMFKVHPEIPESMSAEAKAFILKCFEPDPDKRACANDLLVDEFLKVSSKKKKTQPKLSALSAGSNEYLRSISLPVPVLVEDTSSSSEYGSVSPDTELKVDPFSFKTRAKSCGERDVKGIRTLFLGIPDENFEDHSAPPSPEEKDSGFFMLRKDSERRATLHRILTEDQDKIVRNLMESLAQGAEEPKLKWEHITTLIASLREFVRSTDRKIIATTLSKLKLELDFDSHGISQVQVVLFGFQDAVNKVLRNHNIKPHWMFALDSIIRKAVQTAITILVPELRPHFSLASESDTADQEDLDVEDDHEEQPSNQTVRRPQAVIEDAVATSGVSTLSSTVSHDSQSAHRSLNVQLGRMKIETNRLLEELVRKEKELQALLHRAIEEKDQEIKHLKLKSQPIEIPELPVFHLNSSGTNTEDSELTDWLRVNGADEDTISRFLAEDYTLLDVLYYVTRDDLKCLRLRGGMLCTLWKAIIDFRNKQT
Method in brief: as §1

PKCbetaI = PKCbetaI (Homo sapiens (Human), UniProt P05771)
Method in brief: as §1

PASK = PASK (Homo sapiens (Human), UniProt Q96RG2)
Method in brief: as §1

Chain of p38delta (O15264 whole entry): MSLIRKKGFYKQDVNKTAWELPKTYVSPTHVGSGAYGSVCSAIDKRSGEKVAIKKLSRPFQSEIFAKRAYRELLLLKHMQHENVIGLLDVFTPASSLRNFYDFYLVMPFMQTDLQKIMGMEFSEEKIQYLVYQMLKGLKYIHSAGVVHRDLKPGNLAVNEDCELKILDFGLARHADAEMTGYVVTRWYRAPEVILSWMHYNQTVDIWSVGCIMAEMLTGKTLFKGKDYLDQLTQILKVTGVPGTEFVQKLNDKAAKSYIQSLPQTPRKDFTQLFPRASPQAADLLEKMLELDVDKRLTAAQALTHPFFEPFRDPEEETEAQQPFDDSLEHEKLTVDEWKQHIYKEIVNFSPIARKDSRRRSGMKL

COCc1ccc2c(c1)C(NC(=O)Nc1c(C)c(-c3cnn(C)c3)nn1-c1ccccc1)COC2 (stereo not drawn) [Example 32, 1-(1′,4-dimethyl-1-phenyl-1H,1′H-[3,4′-bipyrazol]-5-yl)-3-(6-(methoxymethyl)isochroman-4-yl)urea]
Avg. POC (p38delta): 113.5 POC | Avg. POC (NEK7): 122.5 POC | Avg. POC (RIPK2): 99.5 POC | Avg. POC (PhKgamma2): 102.5 POC | Avg. POC (JNK1alpha1): 118 POC | Avg. POC (CHK1): 103 POC | Avg. POC (ALK4): 100.5 POC | Avg. POC (Rse): 105 POC | Avg. POC (IRR): 109.5 POC | Avg. POC (PDGFRbeta): 131.5 POC | Avg. POC (CDK5/p35): 112 POC | Avg. POC (STK33): 115 POC | Avg. POC (FGFR3): 107 POC | Avg. POC (GRK7): 117.5 POC | Avg. POC (FAK2): 101.5 POC | Avg. POC (AKT3): 77.5 POC | Avg. POC (MAP4K2): 119.5 POC | Avg. POC (CDK9/cyclinT1): 106.5 POC | Avg. POC (CK1gamma1): 111.5 POC | Avg. POC (Mer): 104 POC | Avg. POC (CSK): 123 POC | Avg. POC (ZAP-70): 124 POC | Avg. POC (Flt4): 98 POC | Avg. POC (IKKbeta): 105.5 POC | Avg. POC (JAK3): 109.5 POC | Avg. POC (Met): 118.5 POC | Avg. POC (LKB1): 100 POC | Avg. POC (CAMK1d): 114 POC | Avg. POC (PKD1): 98.5 POC | Avg. POC (PDGFRalpha): 112.5 POC | Avg. POC (PKCtheta): 117 POC | Avg. POC (WNK2): 108.5 POC | Avg. POC (ITK): 124 POC | Avg. POC (CDK2/cyclinE): 106 POC | Avg. POC (CLK2): 105.5 POC | Avg. POC (EphA5): 104.5 POC | Avg. POC (MAP3K5): 116 POC | Avg. POC (PKCbetaI): 80 POC | Avg. POC (PASK): 137 POC
